Reference: patent publication US4956343A, “Control of insects by Roseotoxin B” (priority 1988, dated 1990)
Square brackets hold non-standard residues; d marks the D form. Peptide text beside a SMILES is read from it. dLac(3-vinyl) = C=CC[C@@H](O)C(=O)O; dHica = CC(C)C[C@@H](O)C(=O)O; NMeV = CN[C@H](C(=O)O)C(C)C; NMeA = CN[C@@H](C)C(=O)O; βAla = NCCC(=O)O

Columns and labels:
silk worm larvae = details: cited from earlier work
mice [1] = details: intraperitoneal injection; cited from earlier work
mice [2] = experiment: Toxicity to mice by intraperitoneal injection; details: ratio of lethal doses
Heliothis zea = experiment: Insecticidal activity, diet incorporation, neonate corn earworm larvae; assay type: in vivo; details: 2.5 ppm in diet; for Mortality: neonate larvae fed 1 week; for Wt. reductions: survivors after 1 week
Protocol: (§1) Insects. Neonate larvae of Heliothis zea and Spodoptera frugiperda were used for all assays. They were obtained from laboratory colonies reared on pinto bean-based diet at 27°±1° C., 40±10% relative humidity, and a 14:10 light:dark photoperiod.
(§2) The diet used to rear the insects was based on a standard pinto bean diet for many species of lepidoptera and contained the following ingredients: 120 g dried pinto beans, 43 g wheat germ, 28 g brewer's yeast, 8 g Vanderzant's vitamin mix, 2.8 g ascorbic acid, 1.75 g methyl paraben, 0.9 g sorbic acid, 12 g agar, 1 ml formaldehyde (38%), 1.5 ml of propionic-phosphoric acid solution (42% propionic acid, 4.2% phosphoric acid), and 550 ml water. All dry diet ingredients (except for the pinto beans) were purchased from U.S. Biochemicals Corp. Before use, the beans were soaked in water until saturated. The agar was added to 250 ml of water and brought to a boil. The other ingredients were blended in a Waring blender until uniformly mixed. The hot agar was added, and blending continued until all ingredients were uniformly mixed.
(§3) The pinto bean-based diet was prepared and added in 5-ml quantities to test tubes. The test tubes were held at 60° C. until chemicals were incorporated to prevent solidification of the diet. The roseotoxin B was added in 125 μl of acetone to the liquid diet upon removal from the water bath to give a final concentration of 250-2.5 ppm. The chemical was incorporated into the diets by blending vigorously with a vortex mixer for 20 sec. Preliminary observations with colored solutions of both water and acetone indicated uniform incorporation by this method. The diets were dispensed into culture plates, and allowed to cool to room temperature. To remove the potentially toxic acetone, the diets were placed in a fume hood for ca. 20 min until slight darkening occurred. The diets were cut into approximately equal sections, and each section was placed into a well of a 24-well immunoassay plate. A single neonate H. zea or S. frugiperda larvae was added to each well. To prevent desiccation of the diet, the plate was covered by a sheet of parafilm, a sheet of cardboard, and the plastic cover. The cover was secured by two rubber bands, and groups of plates were placed in two polyethylene bags held closely by rubber bands. The plates were held under the same conditions used to rear the insects. Mortality was checked at 2, 4, and 7 days, and the surviving larvae were weighed after 7 days. Each chemical set was tested on a total of 40 larvae.
(§4) Mortality values are based on two replicates of ca. 20 insects each, whil
(§5) weight reductions are based on survivors of mortality tests. All chemical
(§6) were incorporated into insect diets, and fed to neonate larvae for 1 week

Spodoptera frugiperda = experiment: Insecticidal activity, diet incorporation, neonate fall armyworm larvae; assay type: in vivo; details: 2.5 ppm in diet; for Mortality: neonate larvae fed 1 week; for Wt. reductions: survivors after 1 week
Protocol: as §1, §2, §3, §4, §5, §6

Row | Structure (SMILES) | Dose causing death by injection (silk worm larvae) [µg/g] | Dose that killed all test mice (mice [1]) [mg/kg] | Mammalian toxicity relative to roseotoxin B (mice [2]) | Mortality (Heliothis zea) [%] | Wt. reductions (Heliothis zea) [%] | Mortality (Spodoptera frugiperda) [%] | Wt. reductions (Spodoptera frugiperda) [%]
1 | C=CC[C@H]1OC(=O)CCNC(=O)[C@H](C)N(C)C(=O)[C@H](C(C)C)N(C)C(=O)[C@H]([C@@H](C)CC)NC(=O)[C@@H]2CCCN2C1=O [destruxin A] (cyclo([dLac(3-vinyl)]PI[NMeV][NMeA][βAla])) | 0.28 | 1.35 | approximately 100 times |  |  |  | 
2 | CC1(C)C(C=C(Cl)Cl)C1C(=O)OCc1cccc(Oc2ccccc2)c1 (centres unmarked) [Permethrin] |  |  |  | 17 | 81 | 35 | 94
3 | CCOC(=O)CC(SP(=S)(OC)OC)C(=O)OCC (centres unmarked) [Malathion] |  |  |  | 5.5 | 27 | 30 | 45
4 | CC[C@H](C)[C@@H]1NC(=O)[C@@H]2CCCN2C(=O)[C@@H](CC(C)C)OC(=O)CCNC(=O)[C@H](C)N(C)C(=O)[C@H](C(C)C)N(C)C1=O [Destruxin B] (cyclo([dHica]PI[NMeV][NMeA][βAla])) | 0.34 | 16.9 | about 10 times |  |  |  | 
